The values that follow come from article PMC4342491, “Cross-talk between Two Nucleotide-signaling Pathways in Staphylococcus aureus” (The Journal of Biological Chemistry, 2015).

For experiment [1], the target named is T1, GdpP (rGdpP) (Staphylococcus aureus, UniProt Q2G2T6).
T1 construct: gene SAOUHSC_00015; residues 84-655, N-terminal transmembrane helices removed
T1 sequence (Q2G2T6 84-655): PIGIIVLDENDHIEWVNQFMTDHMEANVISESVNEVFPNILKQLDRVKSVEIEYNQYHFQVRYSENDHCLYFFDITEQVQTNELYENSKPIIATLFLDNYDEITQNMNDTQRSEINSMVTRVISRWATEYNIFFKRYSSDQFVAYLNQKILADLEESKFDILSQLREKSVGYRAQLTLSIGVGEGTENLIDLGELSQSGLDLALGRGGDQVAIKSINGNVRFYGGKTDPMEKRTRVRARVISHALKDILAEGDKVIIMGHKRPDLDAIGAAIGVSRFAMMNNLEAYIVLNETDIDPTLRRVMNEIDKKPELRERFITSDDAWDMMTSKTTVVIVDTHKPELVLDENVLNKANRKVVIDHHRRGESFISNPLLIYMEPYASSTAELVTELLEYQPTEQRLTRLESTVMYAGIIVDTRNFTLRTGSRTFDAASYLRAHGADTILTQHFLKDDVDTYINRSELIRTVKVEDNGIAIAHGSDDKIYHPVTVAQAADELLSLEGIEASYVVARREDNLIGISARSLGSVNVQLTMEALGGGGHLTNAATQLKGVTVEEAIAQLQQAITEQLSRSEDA
Put plainly: TLC of […]c-di-AMP hydrolysis to pApA, dose-response fit. It is filed as biochemical.

Experiment [2] concerns the target T1, GdpP (rGdpP). As to the kind of experiment: TLC of radiolabelled c-di-AMP hydrolysis to pApA. The class given is biochemical. Particulars: labelled compound; 20 μM c-di-AMP, 1 μM enzyme, 50 mM Tris pH 8.5, 0.1 mM MnCl2, 20 mM KCl, room temperature, no ppGpp.

Consider `Nc1nc2c(ncn2[C@@H]2O[C@H](COP(=O)(O)OP(=O)(O)O)[C@@H](OP(=O)(O)OP(=O)(O)O)[C@H]2O)c(=O)[nH]1` [ppGpp], for which the Ki on GdpP (rGdpP) [1] worked out at 130 ± 42.8 µM. For the compound `Nc1ncnc2c1ncn2[C@@H]1O[C@@H]2COP(=O)(O)O[C@H]3[C@@H](O)[C@H](n4cnc5c(N)ncnc54)O[C@@H]3COP(=O)(O)O[C@H]2[C@H]1O` [c-di-AMP], the “% pApA formation” value at GdpP (rGdpP) [2] was “rGdpP was able to efficiently hydrolyze c-di-AMP in the absence of ppGpp”.

In general, Ki refers to the equilibrium dissociation constant of an inhibitor or competing ligand from its target. Read a high Ki as lower affinity.
